The record followed here is US8940863B2, “Selective anticancer chimeric peptides which bind neuropilin receptor” (Stella Pharma Corporation, priority 2008, dated 2015).

Series [1] has as its system MRC-5. Put plainly: Cell viability assay (WST-8). (In general: Formazan colour is commonly taken as a measure of viable cells.)
Series [2] addresses recombinant human EGF receptor (rhEGFR) (Homo sapiens, UniProt P00533). In words: BIACORE binding to EGFR protein. How it is done: Surface plasmon resonance (SPR) experiments were performed with a BIACORE biosensor system 3000 (BIACORE Inc., Uppsala, Sweden). About 5000 RU of streptavidin (Sigma) was immobilized on the surface of CM5 sensor chips via N-hydroxysuccinimide and N-ethyl-N′-(dimethylaminopropyl) carbodiimide activation chemistry, and then 2000-3000 RU of peptide conjugated with biotin were injected over the streptavidin-immobilized sensor chip. As a control of nonspecific binding, the unreacted carboxymethyl groups of a sensor chip without immobilized streptavidin were blocked with ethanolamine. As an analyte, cell surface proteins which were prepared using the Mem-PER eukaryotic membrane protein extraction reagent kit (Pierce) were injected over the flow-cell in the flow rate of […]. at 25° C. […] All protein concentrations used in these experiments were determined by the Bradford method (Bradford M M. A rapid and sensitive method for the quantitation of microgram quantities of protein utilizing the principle of protein-dye binding. Anal Biochem 1976; 72:248-54). […]
Among the aforementioned mutated peptides, first, paying attention to the second H which has charge, K- and R-mutants were chemically synthesized. As described in Example 1, using BIACORE, binding affinity with recombinant human EGFR was evaluated by comparison with that of wild-type EGFR-binding peptide. […]
In general terms: SPR reads the build-up and loss of mass on a sensor chip optically.

The subject of series [3] is SU.86.86. Conditions: for IC50: 48 h.
Series [4] deals with SK-BR-3. To be noted: SKBR3; 72 hours.
Series [5] has as its system PE cell (pancreatic epidermal). In words: Cell viability assay (WST-8). Type of series: cell-based. Conditions: read-out: IC50. An excerpt: (§1) Correlation between IC50 values was observed.
The test system of series [6] is MDA-MB-231.
Series [7] has as its system HEK293T. The series is classed as cell-based. To be noted: 72 h.
Series [8] deals with U251. Conditions: 72 h.
Series [9] relates to WI-38. To be noted: 72 h.
Series [10] relates to A172. In words: Cell viability assay (WST-8). Type of series: cell-based. Conditions: 72 h.
Series [11] deals with BxPC-3.
The test system of series [12] is KCCT873. Put plainly: Cell viability assay (WST-8). The series is classed as cell-based. To be noted: 72 h.
Series [13] concerns BT-20. To be noted: BT20 breast cancer cells; 48 hours (Table 6).
For series [14], the system named is Panc-1.
Series [15] deals with CFPAC-1.
The test system of series [16] is T47D. Put plainly: Cell viability assay (WST-8). The series is classed as cell-based, human. Conditions: T47D breast cancer cells; 48 hours (Table 6); read-out: IC50.
Text: as §1

The subject of series [17] is SU8686. In words: Annexin V flow cytometry. Type of series: cell-based, human. To be noted: 10 μM, three hours at 37° C. As for the experimental part:
SU8686 cells were incubated with Sema3A (363-377)-kLytic peptide (10 μM) for three hours at 37° C., and were analyzed for Annexin V labeling by dual-color flow cytometry.

Series [18] relates to HC cell (hepatocyte cell). Put plainly: Cell viability assay (WST-8). The series is classed as cell-based, human. Conditions: Human normal hepatocyte cell; 48 hours (Table 8); read-out: IC50.
Text: as §1

Series [19] concerns H322. To be noted: H322; 72 hours.

Where two headings read alike, the source gives them in different places. Non-standard residues stand in square brackets, D forms with d. Residues, ends and D or L forms follow the SMILES beside them. No end group written: not given here.

For the compound “YHWYGYTPQNVIGGGLKLLKKLLKKLLKLL-NH2 (C-terminal amide; EB-original Lytic peptide; position 18, 21, 23, 24 and 28 are D-amino acids, and -CONH2 is existing at C-terminal.)”, in series [1] (MRC-5, 72 hours), the “cytotoxicity to normal cell line MRC-5” value is listed as “killed even normal cell line (MRC-5) at lower concentration”.
Regarding “YKWYGYTPQNVI (EGFR binding peptide) [K-substituted peptide]”, in series [2], the “biosensor response compared with wild-type EGFR-binding peptide” value is on record as “some enhancement of biosensor response”.
As to “NYQWVPYQGRVPYPRGGGKLLLKLLKKLLKLLKKK (Sema3A-lyticL chimeric peptide)”, the “cell-killing effect compared with LyticL alone” value was “cell-killing effect was enhanced” in [3] (SU86.86, 72 hours) and “cell-killing effect was enhanced” in [4].
With `CC[C@H](C)[C@H](NC(=O)[C@H](CC(C)C)NC(=O)[C@H](CCC(N)=O)NC(=O)[C@@H](N)CCCCN)C(=O)N[C@@H](CCCNC(=N)N)C(=O)N[C@@H](Cc1ccccc1)C(=O)N[C@@H](CC(C)C)C(=O)N[C@@H](CCCCN)C(=O)N[C@@H](CCCNC(=N)N)C(=O)N[C@@H](CC(C)C)C(=O)N[C@@H](CC(=O)O)C(=O)N[C@@H](CCCNC(=N)N)C(=O)N[C@@H](CC(N)=O)C(=O)NCC(=O)NCC(=O)NCC(=O)N[C@@H](CCCCN)C(=O)N[C@@H](CC(C)C)C(=O)N[C@H](CC(C)C)C(=O)N[C@@H](CC(C)C)C(=O)N[C@@H](CCCCN)C(=O)N[C@H](CC(C)C)C(=O)N[C@@H](CC(C)C)C(=O)N[C@H](CCCCN)C(=O)N[C@H](CCCCN)C(=O)N[C@@H](CC(C)C)C(=O)N[C@@H](CC(C)C)C(=O)N[C@@H](CCCCN)C(=O)N[C@H](CC(C)C)C(=O)N[C@@H](CC(C)C)C(=O)N[C@@H](CCCCN)C(=O)N[C@@H](CCCCN)C(=O)N[C@@H](CCCCN)C(=O)O` [IL4-lytic (L, D)] (H-KQLIRFLKRLDRNGGGKL[dL]LK[dL]L[dK][dK]LLK[dL]LKKK-OH; N-terminus and C-terminus assumed), the IC50 (usually the midpoint of a concentration-inhibition curve) in series [5] (PE normal cells, 72 hours, Mean ± SD (Table 4)) is over 20 µM; in series [6] (72 h) it was 5.7 ± 0.4 µM; in [7] it was 14.2 ± 1.3 µM; in [8], 6.6 ± 0.4 µM; in series [9], 16.1 ± 0.5 µM; in [10], 6.8 ± 0.4 µM. In addition, the results for the concentration for half-maximal inhibition (IC50) in series [11] (72 h) and in [12] were 6.8 ± 0.3 µM and 5.9 ± 0.6 µM, respectively.
For the compound `CC(C)C[C@H](NC(=O)[C@H](CCCCN)NC(=O)[C@@H](CC(C)C)NC(=O)[C@H](CC(C)C)NC(=O)[C@H](CCCCN)NC(=O)[C@H](CCCCN)NC(=O)[C@H](CC(C)C)NC(=O)[C@@H](CC(C)C)NC(=O)[C@@H](CCCCN)NC(=O)[C@H](CCCCN)NC(=O)[C@H](CC(C)C)NC(=O)[C@H](CC(C)C)NC(=O)[C@@H](CCCCN)NC(=O)[C@H](CC(C)C)NC(=O)[C@@H](N)CC(C)C)C(=O)O` [nLytic, LLKLLKKLLKKLLKL] (H-LL[dK]LLK[dK][dL]LKKL[dL]KL-OH; N-terminus and C-terminus assumed), the concentration for half-maximal inhibition (IC50) in [5] (Pancreatic epithelium normal cells, 48 hours (Table 5)) is over 50 µM; in [3] it was 19.5 µM; in [6] (48 h), 29.6 µM; in series [13], 38 µM; in series [14] (Panc-1 cancer cells, 48 hours (Table 5)) it was 28.2 µM; in series [15] (CFPAC-1 cancer cells, 48 hours (Table 5)), 22.6 µM. The half-inhibitory concentration (IC50) in series [16] came out at 12.5 µM; in series [11] (48 h), 38.5 µM.
For the compound `CC(C)C[C@H](NC(=O)[C@H](CC(C)C)NC(=O)[C@@H](CCCCN)NC(=O)[C@@H](CCCCN)NC(=O)[C@H](CC(C)C)NC(=O)[C@@H](CC(C)C)NC(=O)[C@H](CCCCN)NC(=O)[C@H](CC(C)C)NC(=O)[C@@H](CC(C)C)NC(=O)[C@H](CC(C)C)NC(=O)[C@H](CCCCN)NC(=O)CNC(=O)CNC(=O)CNC(=O)[C@H](CCCNC(=N)N)NC(=O)[C@@H]1CCCN1C(=O)[C@H](Cc1ccc(O)cc1)NC(=O)[C@@H]1CCCN1C(=O)[C@@H](NC(=O)[C@H](CCCNC(=N)N)NC(=O)CNC(=O)[C@H](CCC(N)=O)NC(=O)[C@H](Cc1ccc(O)cc1)NC(=O)[C@@H]1CCCN1C(=O)[C@@H](NC(=O)[C@H](Cc1c[nH]c2ccccc12)NC(=O)[C@H](CCC(N)=O)NC(=O)[C@H](Cc1ccc(O)cc1)NC(=O)[C@@H](N)CC(N)=O)C(C)C)C(C)C)C(=O)N[C@@H](CCCCN)C(=O)N[C@H](CC(C)C)C(=O)N[C@@H](CC(C)C)C(=O)N[C@@H](CCCCN)C(=O)N[C@@H](CCCCN)C(=O)N[C@@H](CCCCN)C(=O)O` [Sema3A(aa363-377)-kLytic] (H-NYQWVPYQGRVPYPRGGGKL[dL]LK[dL]L[dK][dK]LLK[dL]LKKK-OH; N-terminus and C-terminus assumed), the IC50 in series [5] (Pancreatic epidermal cell, normal cells, 48 hours (Table 8)) is over 20 µM; in series [3] it was 5.2 ± 0.4 µM; in series [14] (48 h), 13 ± 2.7 µM; in [15] (48 h), 6.7 ± 0.1 µM; in series [1] (MRC-5 normal cells, 48 hours (Table 8)), over 50 µM; in [18], 37.5 µM. Further, in series [11] (48 h), the IC50 stood at 5.7 ± 2.3 µM. Further, the “Annexin V-positive dead cells” value in series [17] (listed as Sema3A (363-377)-kLytic) is recorded as “increased”; in series [17] (listed as Sema3A(363-377)-kLytic) it was “induces Annexin V-positive expression”.
As to “YHWYGYTPQNVIGGGLKLLKKLLKKLLKLL-NH2 (YHWYGYTPQNVIGGGLK[dL]LK[dK]L[dL][dK]KLL[dK]LL-NH2; N-terminus assumed; SMILES CC[C@H](C)[C@H](NC(=O)[C@@H](NC(=O)[C@H](CC(N)=O)NC(=O)[C@H](CCC(N)=O)NC(=O)[C@@H]1CCCN1C(=O)[C@@H](NC(=O)[C@H](Cc1ccc(O)cc1)NC(=O)CNC(=O)[C@H](Cc1ccc(O)cc1)NC(=O)[C@H](Cc1c[nH]c2ccccc12)NC(=O)[C@H](Cc1c[nH]cn1)NC(=O)[C@@H](N)Cc1ccc(O)cc1)[C@@H](C)O)C(C)C)C(=O)NCC(=O)NCC(=O)NCC(=O)N[C@@H](CC(C)C)C(=O)N[C@@H](CCCCN)C(=O)N[C@H](CC(C)C)C(=O)N[C@@H](CC(C)C)C(=O)N[C@@H](CCCCN)C(=O)N[C@H](CCCCN)C(=O)N[C@@H](CC(C)C)C(=O)N[C@H](CC(C)C)C(=O)N[C@H](CCCCN)C(=O)N[C@@H](CCCCN)C(=O)N[C@@H](CC(C)C)C(=O)N[C@@H](CC(C)C)C(=O)N[C@H](CCCCN)C(=O)N[C@@H](CC(C)C)C(=O)N[C@@H](CC(C)C)C(N)=O) [EB-original lytic peptide]”, the “cell-killing effect of chimeric peptide compared with lytic moiety alone” value in [19] is reported as “did not show enhancement of cytotoxic activity”.
On to “YRWYGYTPQNVI (EGFR binding peptide) [R-substituted peptide]”, for which the “biosensor response compared with wild-type EGFR-binding peptide” value in series [2] was “response of two fold of wild-type”.
